Key:
Triton rat = assay: Plasma triglycerides after Intralipid and Triton WR-1339 in a model of impaired triglyceride clearance; type: in vivo, rat (male Sprague Dawley); conditions: for Plasma TG at 90 min: 90 min after Triton WR-1339 100 mg/kg i.v.; for Plasma TG at 90 min / Plasma TG at 120 min / Pre-Triton TG: compound 1 at 10 mg/kg by gavage, mean ± SEM; for Plasma TG at 120 min: 120 min after Triton WR-1339 100 mg/kg i.v.; for Pre-Triton TG: before Triton WR-1339, Intralipid 10 mL/kg 30 min later
Protocol: Male Sprague Dawley rats were studied at 9 and 10 weeks of age and were overnight fasted the night prior to study. The compound treated groups received a suspension of compound 1 at 10 mg/kg administered in 0.5% methyl cellulose with 0.1% Tween-80 at […]. Vehicle treated groups were dosed in a volume-matched manner with 0.5% methyl cellulose with 0.1% Tween-80. Vehicle and compounds were made up in a single batch the day before the start of each study. Orlistat was administered as a suspension in 0.5% methyl cellulose with 0.1% Tween-80 at 4 mL/kg. Intralipid was used as a high fat meal. Triton WR-1339 (10% weight: weight) was dissolved in normal saline and dosed at 100 mg/kg (i.v.) at a volume of 1 mL/kg. A baseline blood sample was collected by tail nick into ethylenediaminetetraacetic acid-lined tubes (Sarstedt, Nümbrecht, Germany) immediately prior to administering compounds (between 0830 and 0900 hrs). Rats were gavaged with drug or vehicle (4 mL/kg) beginning at 0830 hrs. Thirty minutes later, Intralipid was gavaged at 10 mL/kg to all rats, representing t=−30 min. Again, thirty minutes later, representing time=0 min, all rats were dosed via tail vein with Triton WR-1339 (100 mg/kg and 1 mL/kg) in normal saline. Blood samples were taken at −30 minutes (immediately prior to Intralipid/water dosing), −15 minutes, 0 minutes (immediately prior to Triton WR-1339 administration), as well as at 30, 60, 90, 120, and 240 minutes following administration of Triton WR-1339. Blood samples remained on ice following collection for no longer than 30 min prior to centrifugation. Following centrifugation (10 min, 4° C., 1000×g), plasma was aliquoted for plasma TG analysis. Data are reported as means±SEM. Repeated measures two-way ANOVA was used to assess the significance of the treatment by time interaction in plasma TGs followed by Tukey's post-hoc test to compare differences among the groups. Significance was set at P<0.05 and represented as asterisks in FIG. 3.

FCS (Type I) patients = assay: Open-label clinical study, fasting and postprandial (MTT) triglycerides in FCS patients; type: in vivo, human
Protocol: (§1) An open-label, multiple-dose, parallel group clinical study is carried out to assess the safety, tolerability, pharmacokinetics and pharmacodynamics of compound 1 in twelve patients with chylomicronemia (six with FCS and six with Type V).
(§2) The safety and tolerability of multiple doses of Compound 1 in patients with chylomicronemia (both FCS and Type V), and the effect of oral Compound 1 on fasting and postprandial plasma triglycerides in the study population are determined using the following method.
(§3) The clinical study is an open-label, out-patient parallel group study to assess the safety, tolerability, pharmacokinetics and pharmacodynamics of Compound 1 administered once daily for 21 days in patients with chylomicronemia (both FCS and Type V). Six patients of each phenotype are enrolled and treated with Compound 1 at 20 mg per day for 21 days. Following a screening period of up to 90 days, eligible patients undergo a 7-day baseline period, a 21-day treatment period, a 14-day follow-up period after last treatment day and a study completion evaluation.
(§4) The enrolling criteria for Type V patients is a screening baseline of greater than or equal to 1000 mg/dL fasting triglycerides (TG), and a documented history of heterozygous lipoprotein lipase deficiency. The enrolling criteria for familial chylomicronemia syndrome (FCS) patients is a screening baseline of greater than or equal to 1000 mg/dL fasting triglycerides, and a documented history of homozygous lipoprotein lipase deficiency.
(§5) Patients are seen at a screening visit, and, if found to meet enrollment criteria, are enrolled in the study. At this time they are given instructions to adhere to a very low fat diet (<15 g/day) during the duration of the study, as is the standard of care for this population. Patients are also provided with three days' worth of standardized very low fat meals that are consumed for the three days prior to baseline evaluation (Day—4, Day—3, & Day—2)
(§6) Patients arrive at the study site on Day—1 early morning after an overnight fast for a meal tolerance test (MTT) to evaluate baseline postprandial triglyceride (TG) response. The MTT is a liquid meal of approximately 700 kcal, being 13% fat, 65% carbohydrates and 22% protein. Before the MTT, and at hourly time points through 9 hours, blood samples are taken for triglyceride and other metabolic measurements. Patients are discharged after completing this assessment and return to the study site next morning (Day 1) for a blood collection approximately 24 hours post meal, before the first dose of the study drug (Compound 1 tablets) is administered.
(§7) On the morning of Day 1, patients receive the first dose of Compound 1 at the clinic site. The drug supply for remainder of the 21-day treatment period is provided to the patients, who are instructed to take the drug orally once daily approximately one hour before breakfast for 21 days. Patients are also instructed to continue adherance to a very low fat diet. Patients are then released to home.
(§8) Patients report to the study site once weekly during the treatment period for safety and pharmacokinetics assessment, drug accountability and reviewing the meal plan and food diary. Additionally, the site staff contacts patients by phone, at least once between the clinic visits to check patients' wellbeing and monitor compliance with drug administration and low-fat meals instructions.
(§9) Patients are given pre-prepared very low-fat meals again that are consumed on Day 18, 19 & 20. Patients return to the study site on Day 21 early morning after an overnight fast for a second test meal (MTT) and frequent blood samples collection to evaluate postprandial TG response. Following the MTT and associated Day 21 assessments, patients are discharged to home. They return on the morning of Day 22 for a 24 h blood sample for triglycerides.

Type V patients = assay: Open-label clinical study, fasting and postprandial (MTT) triglycerides in Type V patients; type: in vivo, human
Protocol: as §1, §2, §3, §4, §5, §6, §7, §8, §9

STZ rats = assay: Plasma triglycerides after Intralipid in a model of severe hypertriglyceridemia (STZ, high fat diet); type: in vivo, rat (male Sprague Dawley); conditions: for Plasma TG at 2 hrs / Plasma TG at 4 hrs: 10 mpk oral gavage 30 min before Intralipid 10 ml/kg; for Plasma TG at 2 hrs: 2 hrs post-Intralipid; for Plasma TG at 2 hrs / Plasma TG at 4 hrs / Pre-dose TG: mean ± SEM; for Plasma TG at 4 hrs / Plasma TGs at 4 hrs compared between groups: 4 hrs post-Intralipid; for Pre-dose TG: baseline immediately before dosing, 6 h fasted, group later given 10 mpk oral, n=10/group
Protocol: Male Sprague Dawley (SD) rats at 12 wks of age were studied. Orlistat (04139-100MG) and Streptozotocin (S0130-1G) were purchased from Sigma (St. Louis, Mo.).
Compounds were suspended in vehicle (0.5% methyl cellulose with 0.1% Tween-80) to achieve a dosing volume of 4 ml/kg and dosing concentration of 10 mpk for both compound 1 and orlistat (Sigma, St. Louis, Mo.).
Two weeks into consuming a 60% high fat diet, animals were treated with a 40 mpk dose of streptozotocin (STZ given intravenously (iv) in 10 mM sodium citrate in normal saline, pH=4.5). Nine days later, animals were assigned to three experimental groups (vehicle, compound 1 at 10 mpk, or orlistat at 10 mpk) on the basis of 6 hr fasted TG concentrations (n=10/group). On the morning of the study, 14 days after animals were placed in experimental groups, animals were fasted for 6 hours, after which studies commenced at 1100 hr with baseline blood collected by tail nick into ethylenediaminetetraacetic acid-lined tubes (Sarstedt, Nümbrecht, Germany).
The baseline blood sample (80 μl) was collected immediately prior to administering compounds. Rats were orally gavaged with drug or vehicle (4 ml/kg) beginning at 1100 hrs. Thirty minutes later, Intralipid was orally gavaged at 10 ml/kg to all rats, representing t=0 hr. At 2 and 4 hrs post-Intralipid, tail nick blood samples were taken to assess plasma TGs.
Blood samples remained on ice following collection for no longer than 30 min prior to centrifugation (10 min, 4° C., 1000 g) and resulting plasma was aliquoted for plasma TG analysis.
Plasma TGs (triglycerides) (corrected for glycerol) were compared on an absolute basis, as a percent change from baseline (% TGs), and as area above baseline over 0-4 hours (AABtg0-4-h) using the Trapezoidal rule. Percent change from baseline was calculated as follows: % change from baseline=([TGs] at 2 or 4 hrs)−([TGs] at baseline)*100 [TGs] at baseline Statistical Analyses
Data are reported as means±SEM. One-way ANOVA (analysis of variance) assessed between-group differences when any comparisons that were not time-dependent were made (body weight, pre-study plasma TGs, AABtg0-4-h). To assess that the Intralipid bolus produced a significant increase in plasma TGs in the vehicle group, a repeated measures (RM) one-way ANOVA was used with Tukey's posthoc test applied to compare plasma parameter means at 2 and 4 hrs vs. pre-treatment concentrations. RM two-way ANOVA was used to assess the significance of the treatment-by-time interaction for plasma parameters (TGs and % TGs) followed by Bonferroni's t-test to compare differences among the groups. Outliers were determined using the Grubb's Test for Outliers. Significance was set at P≦0.05.

[1] = tested on: patients with chylomicronemia (both FCS and Type V); assay: Open-label clinical study, safety and tolerability and overall triglyceride effect in patients with chylomicronemia (FCS and Type V); type: in vivo
Protocol: as §1, §2, §3
The enrolling criteria for Type V patients is a screening baseline of greater than or equal to 1000 mg/dL fasting triglycerides (TG), and a documented history of heterozygous lipoprotein lipase deficiency. […]

[2] = Type I (FCS) patients, n = 6, 20 mg per day oral for 21 days, MTT
[3] = Type I (FCS) patients, n = 6, MTT before treatment
[4] = n = 6, 20 mg per day oral for 21 days, MTT

O=C([O-])C[C@H]1CC[C@H](c2ccc(-c3ccc(Nc4ccc(C(F)(F)F)nc4)cn3)cc2)CC1.[Na+] [Compound 1, trans-4-[4-[5-[[6-(trifluoromethyl)-3-pyridinyl]amino]-2-pyridinyl]phenyl]cyclohexane acetic acid, sodium salt]
Plasma TG at 90 min (Triton rat): 290.2 ± 89.7 mg/dL | Plasma TG at 120 min (Triton rat): 479.3 ± 123.4 mg/dL | Pre-Triton TG (Triton rat): 35.6 ± 5.6 mg/dL | Rate of absorption of triglycerides arising from a high fat meal (Triton rat; conclusion from Triton rat data): suppresses | Plasma TG appearance compared to vehicle and orlistat treatments (Triton rat; following Intralipid bolus, at 90 and 120 minutes post Triton WR-1339, P≦0.05): significantly decreased | Fasting TG, Mean Δ from Baseline (FCS (Type I) patients; Type I (FCS) patients, n = 6, 20 mg per day oral for 21 days): −38.4% | Postprandial Peak TG, Mean Δ from Baseline (FCS (Type I) patients; [2]): −36.4% | Postprandial TG AUC0-9, Mean Δ from Baseline (FCS (Type I) patients; [2]): −35.4% | Postprandial Peak TG, Mean Baseline (FCS (Type I) patients; [3]): 1913.1 mg/dL | Postprandial TG AUC0-9, Mean Baseline (FCS (Type I) patients; [3]): 15044.5 mg·h/dL | Fasting TG, Mean Baseline (FCS (Type I) patients; Type I (FCS) patients, n = 6, before treatment): 1968.0 mg/dL | Fasting triglycerides decreased by (FCS (Type I) patients; patients with FCS, 20 mg daily for 3 weeks): 38.4% | Postprandial triglycerides (FCS (Type I) patients; patients with FCS, 20 mg daily for 3 weeks, relative to fasting TG decrease): reduced by a similar magnitude | Triglyceride levels decreased by (FCS (Type I) patients; patients with FCS, to near the threshold for increased pancreatitis risk (about 1000 mg/dL)): about 40% | Fasting triglycerides decreased by (Type V patients; 20 mg daily for 3 weeks): 23.6% | Triglyceride levels relative to the threshold for increased pancreatitis risk (about 1000 mg/dL) (Type V patients; 20 mg daily for 3 weeks): kept well below the threshold | Postprandial triglycerides (Type V patients; 20 mg daily for 3 weeks, relative to fasting TG decrease): reduced by a similar magnitude | Fasting TG, Mean Δ from Baseline (Type V patients; n = 6, 20 mg per day oral for 21 days): −23.6% | Postprandial Peak TG, Mean Δ from Baseline (Type V patients; [4]): −25.8% | Postprandial TG AUC0-9, Mean Δ from Baseline (Type V patients; [4]): −27.3% | Postprandial Peak TG, Mean Baseline (Type V patients; n = 6, MTT before treatment): 835.2 mg/dL | Postprandial TG AUC0-9, Mean Baseline (Type V patients; n = 6, MTT before treatment): 6873.0 mg·h/dL | Fasting TG, Mean Baseline (Type V patients; n = 6, before treatment): 745.8 mg/dL | Plasma TG at 2 hrs (STZ rats): 494.5 ± 54.2 mg/dL | Plasma TG at 4 hrs (STZ rats): 461.5 ± 52.5 mg/dL | Plasma TGs at 4 hrs compared between groups (STZ rats; 10 mpk oral): did not differ | Plasma TGs at 2 hrs compared to vehicle and orlistat groups (STZ rats; 10 mpk oral, P≦0.001): significantly lower | Pre-dose TG (STZ rats): 346.1 ± 49.6 mg/dL | Blunting an increase in plasma triglycerides (STZ rats; model of severe hypertriglyceridemia): effective | Safety and tolerability ([1]; all 12 patients, 20 mg daily for 3 weeks): safe and well tolerated | Triglyceride levels after 3 weeks of treatment ([1]; both groups of patients (FCS and Type V), 20 mg daily): decreased

CCCCCCCCCCC[C@@H](C[C@@H]1OC(=O)[C@H]1CCCCCC)OC(=O)[C@H](CC(C)C)NC=O [Orlistat, reference compound]
Plasma TG at 90 min (Triton rat): 747.3 ± 203.7 mg/dL | Plasma TG at 120 min (Triton rat): 984.9 ± 251.7 mg/dL | Pre-Triton TG (Triton rat): 114.5 ± 13.0 mg/dL | Plasma TG at 2 hrs (STZ rats): 891.8 ± 97.8 mg/dL | Plasma TG at 4 hrs (STZ rats): 236.3 ± 37.9 mg/dL | Plasma TGs at 4 hrs compared between groups (STZ rats; 10 mpk oral): lower than the other 2 groups | Pre-dose TG (STZ rats): 288.4 ± 27.4 mg/dL
